Test results reported in ChEMBL document CHEMBL4732079, “Design, synthesis and antitumor evaluation of new 1,8-naphthalimide derivatives targeting nuclear DNA” (Eur J Med Chem, 2021).

Tests used:
SK-OV-3 = test: Antiproliferative activity against human SK-OV-3 cells by MTT assay; format: functional, cell-based
SMMC-7721 = test: Antiproliferative activity against human SMMC-7721 cells by MTT assay; format: functional, cell-based
T-24 = test: Antiproliferative activity against human T-24 cells by MTT assay; format: functional, cell-based
MGC-803 [1] = test: Antiproliferative activity against human MGC-803 cells by MTT assay; format: functional, cell-based
A549 = test: cells; settings: Homo sapiens
Description: Antiproliferative activity against human A549 cells by MTT assay

MGC-803 [2] = test: Antitumor activity against human MGC-803 cells xenografted in BALB/c nude mice assessed as tumor increment rate at 5 mg/kg, ip measured after 21 days relative to control; format: functional; settings: time 21 day
MGC-803 [3] = test: Antitumor activity against human MGC-803 cells xenografted in BALB/c nude mice assessed as tumor inhibitory rate at 5 mg/kg, ip measured after 21 days relative to control; format: functional; settings: Mus musculus, MGC-803, ip, 504 h, time 21 day

Compound	IC50 (SK-OV-3) [µM]	IC50 (SMMC-7721) [µM]	IC50 (T-24) [µM]	IC50 (MGC-803 [1]) [µM]	IC50 (A549) [µM]	T/C (MGC-803 [2]) [%]	inhibition in vivo at 5 mg/kg (MGC-803 [3]) [%]
Cc1ccc(S(=O)(=O)N2CCN(c3c([N+](=O)[O-])cc4c5c(cccc35)C(=O)N(Cc3ccccc3)C4=O)CC2)cc1	38.2	14.8	12.7	10.8	42.9	–	–
Cc1ccc(S(=O)(=O)N2CCN(c3c([N+](=O)[O-])cc4c5c(cccc35)C(=O)N(Cc3ccco3)C4=O)CC2)cc1	29.5	14.7	8.43	29.9	47.2	–	–
O=C(c1ccccc1)N1CCN(c2c([N+](=O)[O-])cc3c4c(cccc24)C(=O)N(CCO)C3=O)CC1	16.8	12	9.93	12.9	31.3	–	–
Cc1ccc(S(=O)(=O)N2CCN(c3c([N+](=O)[O-])cc4c5c(cccc35)C(=O)N(Cc3ccc(Cl)cc3)C4=O)CC2)cc1	30.4	17.6	6.37	28.9	> 50	–	–
O=C1c2cccc3c(N4CCN(C(=S)SCc5ccccc5)CC4)c([N+](=O)[O-])cc(c23)C(=O)N1Cc1ccccc1	34.2	13.5	13.1	21.7	> 50	–	–
COc1ccc(CN2C(=O)c3cccc4c(N5CCN(C(=S)SCc6ccccc6)CC5)c([N+](=O)[O-])cc(c34)C2=O)cc1	27	17.9	10.8	31.1	38.6	–	–
O=C1c2cccc3c(N4CCN(C(=S)SCc5ccccc5)CC4)c([N+](=O)[O-])cc(c23)C(=O)N1CCc1ccc(O)c(O)c1	26.3	22.5	10.7	25.4	17.4	–	–
Cc1ccc(S(=O)(=O)N2CCN(c3c([N+](=O)[O-])cc4c5c(cccc35)C(=O)N(CCc3ccc(O)c(O)c3)C4=O)CC2)cc1	20.4	12.3	11.4	21.8	24.7	–	–
CCCCN1C(=O)c2cccc3c(N4CCN(S(=O)(=O)c5ccc(C)cc5)CC4)c([N+](=O)[O-])cc(c23)C1=O	33.6	12.5	10.9	21.3	36.8	–	–
CNCCCN1C(=O)c2cccc3c(N4CCN(C(=O)c5ccccc5)CC4)c([N+](=O)[O-])cc(c23)C1=O	4.11	4.73	4.65	8.22	6.66	–	–
O=c1[nH]cc(F)c(=O)[nH]1 [FLUOROURACIL]	–	15.3	40.1	34.9	–	–	–
CN(C)CCN1C(=O)c2cccc3c(N4CCN(C(=S)SCc5ccccc5)CC4)c([N+](=O)[O-])cc(c23)C1=O	2.4	3.17	2.06	6.08	1.98	–	–
O=C(c1ccccc1)N1CCN(c2c([N+](=O)[O-])cc3c4c(cccc24)C(=O)N(CCc2ccc(O)c(O)c2)C3=O)CC1	19.9	19.7	14.6	9.31	22.5	–	–
Cc1ccc(S(=O)(=O)N2CCN(c3c([N+](=O)[O-])cc4c5c(cccc35)C(=O)N(Nc3ccccc3)C4=O)CC2)cc1	23.2	14.4	10.7	16.2	38.4	–	–
CC(C)(C)OC(=O)N1CCN(c2c([N+](=O)[O-])cc3c4c(cccc24)C(=O)N(CCO)C3=O)CC1	13.4	13.9	12.8	27.4	45.6	–	–
CN(C)CCN1C(=O)c2cccc3cc(N)cc(c23)C1=O [AMONAFIDE]	6.31	6.93	5.01	9.06	7.94	34.4	65.5

Compound	IC50 (SK-OV-3) [µM]	IC50 (SMMC-7721) [µM]	IC50 (T-24) [µM]	IC50 (MGC-803 [1]) [µM]	IC50 (A549) [µM]	T/C (MGC-803 [2]) [%]	inhibition in vivo at 5 mg/kg (MGC-803 [3]) [%]
Cc1ccc(S(=O)(=O)N2CCN(c3c([N+](=O)[O-])cc4c5c(cccc35)C(=O)N(CCc3ccc5c(c3)OCO5)C4=O)CC2)cc1	28.9	16.6	9.17	12.8	41.8	–	–
O=C1c2cccc3c(N4CCN(C(=S)SCc5ccccc5)CC4)c([N+](=O)[O-])cc(c23)C(=O)N1CCO	31.4	14.3	13.2	15.4	> 50	–	–
Cc1ccc(S(=O)(=O)N2CCN(c3c([N+](=O)[O-])cc4c5c(cccc35)C(=O)N(CCO)C4=O)CC2)cc1	12.2	15.8	6.8	16	20.8	–	–
O=C1c2cccc3c(N4CCN(C(=S)SCc5ccccc5)CC4)c([N+](=O)[O-])cc(c23)C(=O)N1Cc1ccco1	40.4	11.6	18.4	21.2	44.5	–	–
CC(C)(C)OC(=O)N1CCN(c2c([N+](=O)[O-])cc3c4c(cccc24)C(=O)N(CCc2ccc(O)c(O)c2)C3=O)CC1	8.87	27.5	11	8.77	42.1	–	–
O=C1c2cccc3c(N4CCN(C(=S)SCc5ccccc5)CC4)c([N+](=O)[O-])cc(c23)C(=O)N1CCc1ccc2c(c1)OCO2	44.8	12.9	9.16	20.7	33.4	–	–
O=C(c1ccccc1)N1CCN(c2c([N+](=O)[O-])cc3c4c(cccc24)C(=O)N(Cc2ccc(Cl)cc2)C3=O)CC1	15.9	13	20.9	19.9	47.7	–	–
CC(C)(C)OC(=O)N1CCN(c2c([N+](=O)[O-])cc3c4c(cccc24)C(=O)N(CCc2ccc4c(c2)OCO4)C3=O)CC1	7.48	14.4	9.71	25.2	16.5	–	–
CN(C)CCN1C(=O)c2cccc3cc([N+](=O)[O-])cc(c23)C1=O [MITONAFIDE]	1.38	3.22	1.11	6.8	0.012	–	–
CC(C)(C)OC(=O)N1CCN(c2c([N+](=O)[O-])cc3c4c(cccc24)C(=O)N(Cc2ccc(Cl)cc2)C3=O)CC1	12.7	7.76	9.52	16.1	40.4	–	–
CNCCCN1C(=O)c2cccc3c(N4CCN(C(=O)OC(C)(C)C)CC4)c([N+](=O)[O-])cc(c23)C1=O	8.65	5.91	3.05	6.44	7.52	–	–
O=C1c2cccc3c(N4CCN(C(=S)SCc5ccccc5)CC4)c([N+](=O)[O-])cc(c23)C(=O)N1Cc1ccc(Cl)cc1	29.7	8.83	10.3	20.7	40	–	–
CN(C)CCN1C(=O)c2cccc3c(N4CCN(C(=O)OC(C)(C)C)CC4)c([N+](=O)[O-])cc(c23)C1=O	0.65	1.05	0.83	1.33	1.08	–	–
COc1ccc(CN2C(=O)c3cccc4c(N5CCN(S(=O)(=O)c6ccc(C)cc6)CC5)c([N+](=O)[O-])cc(c34)C2=O)cc1	24.1	30.2	14.1	16.3	26.9	–	–
O=C1c2cccc3c(N4CCN(C(=S)SCc5ccccc5)CC4)c([N+](=O)[O-])cc(c23)C(=O)N1Nc1ccccc1	> 50	14.8	13.3	18.4	> 50	–	–
